Values quoted from earlier work as cited in US10449179B2, “Stable veterinary anthelmintic formulations” (DONAGHYS LIMITED, priority 2014, dated 2019).

Settings: LD50 literature averages for three animal species, human equivalent, safety factor 10

SMILES: C[S+](C)[O-] [DMSO, dimethylsulfoxide]
- safety relative to N-methylpyrrolidone (acute oral LD50): approximately 5 times
